Like-named read-outs stand apart in the source and are kept apart here.
Columns and labels:
[1] = test system: bone fracture; test: Local VAC application without a carrier, fracture healing (preliminary data); assay type: in vivo; settings: at the dosages tested
Text: This evidence opens up many future applications to the use of VAC alone, or incorporated with a carrier as an option for fracture healing.

[2] = test system: bone homeostasis; settings: cited from earlier work
[3] = cited from earlier work
[4] = test system: kidney and liver; settings: VAC treatment; cited from earlier work

Structure (SMILES): CC(=O)/C=C(/C)[O-].CC(=O)/C=C(/C)[O-].[O]=[V+2] [VAC, vanadyl acetylacetonate]
- speed of bone healing versus saline controls [1]: more than twice as rapidly as saline controls
- effect on bone parameters ([2]; diabetic rats): improved the ultimate strength, Tb,Th, MAR, and plasma osteocalcin
- effect on bone parameters ([2]; normal rats): did not affect any bone parameters
- tolerance / signs of toxicity ([3]; after several days): no signs of toxicity
- tissue distribution / accumulation ([3]; widely distributed to all tissues): greatest accumulation was within femur tissue
- function or structure of kidney and liver [4]: does not impair the function or structure of kidney and liver
